Experiment [1] relates to CTGF (connective tissue growth factor). In words: Heart mRNA expression of fibrosis marker CTGF (semi-quantitative PCR). The class given is in vivo, mouse. Particulars: mdx mice, 50 mg/kg*day, two months; p=0,0506. As for the experimental part: (§1) Twelve-week-old C57BL10 gene pool (wild mice referred to as “C57” in the figures) and C57BL10 mdx (mouse model of Duchenne muscular dystrophy, referred to as “mdx” in the figures) male mice, produced at Charles Rivers, were used. Two groups of mdx were chronically exposed per os either to BIO101 (number of mice n=9) or to BIO103 (number of mice n=9) at a dose of 50 mg/kg*day. A group of C57 mice (number of mice n=5) and a group of mdx mice (number of mice n=15) received the vehicle, i.e. no treatment. The animals of all of the groups were tested for their functional capacity (exertion tolerance test) after two months of treatment. […]
(§2) An assessment of markers of fibrosis and cardiac hypertrophy is carried out at the end of the protocol, i.e. after two months of treatment. […] The extract RNA is quantified by spectrophotometry then the quality thereof is verified and validated with the Experion RNA StdSens Analysis Kit (Bio-Rad). […] Finally, semi-quantitative PCR analysis was carried out using SYBR® Green (Roche), a DNA intercalating agent and a LightCycler® 480 Real Time PCR (Roche) apparatus on 384-well plates. The molecular markers measured are as follows: • CTGF and collagen I: connective tissue growth factor (CTGF) is associated with healing and with many pathological fibrotic processes including DMD (Brigstock 2010; Song Y. 2017). […]

Experiment [2] relates to BMP4 (bone morphogenetic protein 4). The experiment can be described thus: Heart mRNA expression of BMP4 (semi-quantitative PCR). The class given is in vivo, mouse. Particulars: mdx mice, 50 mg/kg*day, two months; p=0.0529. How it is done: as §1, §2
Experiment [3] deals with Human DMD skeletal muscle cells (KM571DMD10FL Cl1). The experiment can be described thus: Differentiation of human DMD myoblasts into myotubes. The class given is cell-based. To be noted: 10 μM, vs untreated control cells. As for the experimental part: Various parameters have been measured to assess myotube differentiation. Human DMD skeletal muscle cells (KM571DMD10FL Cl1) were differentiated for 3 days then incubated with or without BIO101 at 10 μM. The fusion index and the number of nuclei per myotube were validated as relevant and sensitive indicators of myotube differentiation.
The fusion index illustrated in FIG. 7A represents the percentage of differentiated cell nuclei with respect to the cell total.
The number of nuclei per myotube is illustrated in FIG. 7B, 300 myotubes were counted.
The myotube diameter is illustrated in FIG. 7C, 150 myotubes were measured per condition.
The results in FIGS. 7A,7B and 7C show the mean data measured during three independent experiments, plus or minus the standard error (SEM).

The next experiment concerns Col1a1 (collagen 1). In words: Heart mRNA expression of fibrosis marker Col1a1 (semi-quantitative PCR). The class given is in vivo, mouse. To be noted: mdx mice, 50 mg/kg*day, two months. As for the experimental part:
as §1, §2

A further experiment concerns collagen I. In words: Collagen I protein expression in gastrocnemius muscle (Western Blot). To be noted: 50 mg/kg*day, two months, p<0.01. Format: in vivo, mouse. How it is done: Twelve-week-old C57BL10 gene pool (wild mice referred to as “C57” in the figures) and C57BL10 mdx (mouse model of Duchenne muscular dystrophy, referred to as “mdx” in the figures) male mice, produced at Charles Rivers, were used. Two groups of mdx were chronically exposed per os either to BIO101 (number of mice n=9) or to BIO103 (number of mice n=9) at a dose of 50 mg/kg*day. A group of C57 mice (number of mice n=5) and a group of mdx mice (number of mice n=15) received the vehicle, i.e. no treatment. The animals of all of the groups were tested for their functional capacity (exertion tolerance test) after two months of treatment. The exertion tolerance test consists of measuring the maximum distance travelled (in-toto activity; FIGS. 1A and 1B). Furthermore, measurements of the maximum absolute isometric strength of the tibialis anterior muscle (in-situ activity; FIGS. 2A and 2B) were made after two months of treatment.
Alongside the observations made on the tibialis anterior muscle, an assessment of a marker of muscle fibrosis is carried out on the gastrocnemius muscle. The muscle is dissociated with moderate stirring for 16 h at 4° C. in RIPA lysis buffer. […] Collagen I is detected by Western Blot, detected by chemiluminescence then quantified by densitometry after normalisation with reference to GAPDH detection. […]

For the molecule `CC(C)(O)CC[C@@H](O)[C@](C)(O)[C@H]1CC[C@@]2(O)C3=CC(=O)[C@@H]4C[C@@H](O)[C@@H](O)C[C@]4(C)[C@H]3CC[C@]12C` [BIO101, 20-hydroxyecdysone], the “genic expression of CTGF in heart compared to control mdx animals” value in experiment [1] is reported as “prevents”. The “genic expression of BMP4 in heart compared to control mdx animals” value in experiment [2] is recorded as “reduces”. For the same molecule, in experiment [3] (p<0.001), the “increase in the myotube diameter” value stood at 21% and the “increase of the fusion index” value is recorded as “+7%”. Further, in experiment [3] (p<0.01), the “increase in the number of nuclei per myotube” value is listed as 34%.

In the case of `CCSCC(=O)[C@H]1CC[C@@]2(O)C3=CC(=O)[C@@H]4C[C@@H](O)[C@@H](O)C[C@]4(C)C3CC[C@]12C` (stereo partly drawn) [BIO103, (2S,3R,5R,10R,13R,14S,17S)-17-(2-ethylsulfanylacetyl)-2,3,14-trihydroxy-10,13-dimethyl-2,3,4,5,9,11,12,15,16,17-decahydro-1H-cyclopenta[a]phenanthren-6-one], the “genic expression of Col1a1 in heart compared to control mdx animals” value with Col1a1 (collagen 1) was “tends to prevent”. Moreover, in the experiment with collagen I, the “protein expression of collagen I in gastrocnemius muscle compared to untreated mdx mice” value is given as “significant decrease”.

The values above are taken from US11542295B2, “Use of 20-hydroxyecdysone and the derivatives thereof in the treatment of myopathies” (BIOPHYTIS, priority 2017, dated 2023).
